Columns and labels:
[1] = Effect of Vitamin E-TPGS on the pharmacokinetics of eletriptan in beagle dogs; format: in vivo; conditions: male, dog, plasma, oral, fasted, 0.2 or 1.0 mg/kg eletriptan with or without 6.67 mg/kg Vitamin E-TGPS
Method: This was a crossover study to assess the effects of Vitamin E-TGPS on the rate of absorption of eletriptan. Four male beagle dogs were orally dosed in the fasted state with a 20 ml aqueous formulation comprising
(a) 0.2 mg/kg eletriptan;
(b) 0.2 mg/kg eletriptan coformulated with 6.67 mg/kg of Vitamin E-TGPS;
(c) 1.0 mg/kg eletriptan; and
(d) 1.0 mg/kg eletriptan coformulated with 6.67 mg/kg of Vitamin E-TGPS.
Blood samples (2.5 ml) were collected at 0, 0.17, 0.33, 0.5, 1, 2, 4, 6, 8, 12 and 24 hours after dosing and centrifuged. The resulting plasma samples were deep frozen until analysed for eletriptan by hplc with electrochemical detection.

p-gp = p-gp (Homo sapiens, UniProt P08183); assay: in vitro; conditions: Caco-2
[2] = Eletriptan transport across Caco-2 cell monolayers, effect of concentration; format: in vitro ADME, human; conditions: human, 2 hours, 37° C.
Method: (§1) Caco-2 cell monolayers were grown on permeable 24 well filter supports (1 μm poresize) and used at Day 15-28.
(§2) In studies examining the effect of concentration, 1, 10, 25 and 100 μM solutions of eletriptan in HBSS were added to the donor chamber and Hank's balanced salt solution (HBSS) was added to the acceptor chamber. The volume of the apical and basolateral chambers were 0.25 ml and 1 ml respectively.

[3] = test system: Human Intestinal (Caco-2) Cell Monolayers; assay: as above; format: in vitro ADME; conditions: Caco-2, higher secretory than absorptive flux at low concentrations
Method: as §1, §2

[4] = in vivo

p-gp, sequence (P08183 whole entry): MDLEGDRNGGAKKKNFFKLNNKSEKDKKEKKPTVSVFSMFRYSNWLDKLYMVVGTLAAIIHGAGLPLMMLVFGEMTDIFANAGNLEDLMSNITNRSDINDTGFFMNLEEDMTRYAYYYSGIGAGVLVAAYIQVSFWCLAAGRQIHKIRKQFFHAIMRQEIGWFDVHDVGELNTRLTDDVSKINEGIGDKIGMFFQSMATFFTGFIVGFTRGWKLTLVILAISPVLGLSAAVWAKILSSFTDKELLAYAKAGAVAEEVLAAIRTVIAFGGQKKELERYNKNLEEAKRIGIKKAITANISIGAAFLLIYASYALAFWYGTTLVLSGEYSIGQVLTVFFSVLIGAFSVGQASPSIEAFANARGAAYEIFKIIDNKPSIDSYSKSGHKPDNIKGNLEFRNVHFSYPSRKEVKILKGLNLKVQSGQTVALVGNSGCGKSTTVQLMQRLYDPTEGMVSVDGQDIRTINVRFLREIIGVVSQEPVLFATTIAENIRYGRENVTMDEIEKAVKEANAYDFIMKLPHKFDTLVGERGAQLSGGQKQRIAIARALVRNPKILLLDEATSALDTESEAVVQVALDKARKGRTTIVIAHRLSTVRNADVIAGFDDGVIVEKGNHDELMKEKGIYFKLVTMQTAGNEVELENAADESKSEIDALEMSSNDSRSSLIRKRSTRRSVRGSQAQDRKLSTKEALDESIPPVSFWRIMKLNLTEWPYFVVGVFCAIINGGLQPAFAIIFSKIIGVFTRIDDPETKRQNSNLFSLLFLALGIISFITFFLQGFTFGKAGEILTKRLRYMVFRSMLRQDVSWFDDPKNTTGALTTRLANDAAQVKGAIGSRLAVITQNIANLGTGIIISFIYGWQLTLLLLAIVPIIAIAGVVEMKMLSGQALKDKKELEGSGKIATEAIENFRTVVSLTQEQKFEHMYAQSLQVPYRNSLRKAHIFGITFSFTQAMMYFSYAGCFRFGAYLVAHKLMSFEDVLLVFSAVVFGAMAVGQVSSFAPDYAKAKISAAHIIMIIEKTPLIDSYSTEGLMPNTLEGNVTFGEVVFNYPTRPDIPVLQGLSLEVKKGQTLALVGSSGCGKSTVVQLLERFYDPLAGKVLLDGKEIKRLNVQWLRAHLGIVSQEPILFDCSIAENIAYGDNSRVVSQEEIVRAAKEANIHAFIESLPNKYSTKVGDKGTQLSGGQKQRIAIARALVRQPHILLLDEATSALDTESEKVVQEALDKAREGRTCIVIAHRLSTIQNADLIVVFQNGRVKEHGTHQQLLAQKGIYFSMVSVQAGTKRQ

| Compound | Cmax [1] [ng/mL] | Tmax [1] [h] | Papp A→B at 2 h, 10 μM (p-gp) [×10⁻⁶ cm/s] | Papp B→A at 2 h, 10 μM (p-gp) [×10⁻⁶ cm/s] | Papp A→B at 2 h, 1 μM ([2]; Caco-2, 1 μM eletriptan, read-out: Absorptive A -> B Papp) [×10⁻⁶ cm/s] | Papp B→A at 2 h, 1 μM ([2]; Caco-2, 1 μM eletriptan, read-out: Secretory B -> A Papp) [×10⁻⁶ cm/s] | Papp A→B at 2 h, 10 μM ([2]; Caco-2, 10 μM eletriptan, read-out: Absorptive A -> B Papp) [×10⁻⁶ cm/s] | Papp B→A at 2 h, 10 μM ([2]; Caco-2, 10 μM eletriptan, read-out: Secretory B -> A Papp) [×10⁻⁶ cm/s] | Papp A→B at 2 h, 25 μM ([2]; Caco-2, 25 μM eletriptan, read-out: Absorptive A -> B Papp) [×10⁻⁶ cm/s] | Papp B→A at 2 h, 25 μM ([2]; Caco-2, 25 μM eletriptan, read-out: Secretory B -> A Papp) [×10⁻⁶ cm/s] | Papp A→B at 2 h, 100 μM ([2]; Caco-2, 100 μM eletriptan, read-out: Absorptive A -> B Papp) [×10⁻⁶ cm/s] | Papp B→A at 2 h, 100 μM ([2]; Caco-2, 100 μM eletriptan, read-out: Secretory B -> A Papp) [×10⁻⁶ cm/s] | substrate for the p-gp efflux transporter [3] | eletriptan kel with the inhibitor [4] |
| --- | --- | --- | --- | --- | --- | --- | --- | --- | --- | --- | --- | --- | --- | --- |
| CN1CCC[C@@H]1Cc1c[nH]c2ccc(CCS(=O)(=O)c3ccccc3)cc12 [eletriptan] | 7 to 15 | 1 to 1.7 | 16 | 32.6 | 17 | 41.8 | 20.2 | 36.1 | 21.1 | 34.1 | 29.9 | 32.8 | substrate |  |
| CC[C@H]1OC(=O)[C@H](C)[C@@H](O[C@H]2C[C@@](C)(OC)[C@@H](O)[C@H](C)O2)[C@H](C)[C@@H](O[C@@H]2O[C@H](C)C[C@H](N(C)C)[C@H]2O)[C@](C)(O)C[C@@H](C)C(=O)[C@H](C)[C@@H](O)[C@]1(C)O [erythromycin] |  |  |  |  |  |  |  |  |  |  |  |  |  | significantly reduced |
| CC(=O)N1CCN(c2ccc(OCC3COC(Cn4ccnc4)(c4ccc(Cl)cc4Cl)O3)cc2)CC1 (stereo not drawn) [ketoconazole] |  |  |  |  |  |  |  |  |  |  |  |  |  | significantly reduced |
